Data published in patent US20250092065A1, “2-(INDAZOL-5-YL)-6-(PIPERIDIN-4-YL)-1,7-NAPHTHYRIDINE DERIVATIVES AND RELATED COMPOUNDS AS MODULATORS FOR SPLICING NUCLEIC ACIDS AND FOR THE TREATMENT OF PROLIFERATIVE DISEASES” (REMIX THERAPEUTICS INC., priority 2022, published 2025).
Read-outs that look alike come from different tables or passages of the source.

Columns and labels:
MYB mRNA = test: RT-qPCR splicing assay, MYB mRNA canonical (CJ) and alternative (AJ) junction; assay type: cell-based, human; details: Homo sapiens; for AC50: MYB alternative junction mRNA, read-out: MYB AJ (increase in AJ mRNA, AC50)
Outline: (§1)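 Splice switching quantified in compound-treated A673/K562 cells after 24 h exposure (top dose 10 uM, 3-fold steps, ≤0.25% DMSO), using CJ and AJ qPCR assays run at least in duplicate. RQ derived by 2^(−ΔΔCt), then percentage response.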

SMN2 mRNA = test: RT-qPCR splicing assay, SMN2 mRNA; assay type: cell-based, human; details: Homo sapiens, canonical junction qPCR panel, Table 4; read-out: SMN2 IC50 (decrease in CJ mRNA levels)
Outline: as §1

MYB = test: HiBiT protein abundance assay, MYB (K562 HiBiT knock-in); assay type: cell-based, human; details: HiBiT knock-in K562 cells, 24 hours, top dose 10 μM
Outline: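 Tagged-protein levels were measured as HiBiT/LgBiT luminescence in lysed K562 knock-in cells exposed to serially diluted compound (up to 10 μM final) for 24 hours. A four-parameter logistic regression of control-normalized signal yielded the IC50.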

K562 cells = test: Cell Titer Glo 2.0 cell viability (toxicity) assay, K562; details: 500 cells/well, 72 hours
[1] = MYB canonical junction mRNA, RT-qPCR, read-out: MYB CJ (decrease in CJ mRNA levels, IC50)
[2] = canonical junction qPCR panel, Table 4, read-out: MYB IC50 (decrease in CJ mRNA levels)

| Structure (SMILES) | AC50 (MYB mRNA; RT-qPCR) | IC50 (MYB mRNA; [1]) | IC50 (MYB mRNA; [2]) | IC50 (SMN2 mRNA) | IC50 (MYB) | Effect of Exemplary Compounds on Cell Viability, K562 (K562 cells) |
| --- | --- | --- | --- | --- | --- | --- |
| CNC(=O)c1nc(-c2cc3cn(C)nc3c(C)c2O)nc2ccc(N3C[C@@H](C)N[C@@H](C)C3)cc12 [Compound 511, 6-[(3R,5S)-3,5-dimethylpiperazin-1-yl]-2-(6-hydroxy-2,7-dimethylindazol-5-yl)-N-methylquinazoline-4-carboxamide] | < 0.1 µM | < 0.1 µM | < 0.1 µM | < 0.1 µM | < 0.1 µM | A (A represents <100 nM) |
| CC(=O)c1nc(-c2cc3cn(C)nc3c(F)c2O)nc2ccc(N3CCNCC3)cc12 [Compound 513, 1-(2-(7-fluoro-6-hydroxy-2-methyl-2H-indazol-5-yl)-6-(piperazin-1-yl)quinazolin-4-yl)ethan-1-one 2,2,2-trifluoroacetate] | < 0.1 µM | < 0.1 µM | < 0.1 µM | < 0.1 µM | < 0.1 µM | A (A represents <100 nM) |
| Cn1cc2cc(-c3nc(C#N)c4cc(N5CCNCC5)ccc4n3)c(O)c(F)c2n1 [Compound 514, 2-(7-fluoro-6-hydroxy-2-methylindazol-5-yl)-6-(piperazin-1-yl) quinazoline-4-carbonitrile; trifluoroacetic acid] | < 0.1 µM | < 0.1 µM | < 0.1 µM | < 0.1 µM | < 0.1 µM | A (A represents <100 nM) |
| Cc1c(O)c(-c2ccc3cc(N4CCNCC4)cc(F)c3n2)cc2cn(C)nc12 [Compound 515, 5-[8-fluoro-6-(piperazin-1-yl)quinolin-2-yl]-2,7-dimethylindazol-6-ol] | < 0.1 µM | < 0.1 µM | < 0.1 µM | < 0.1 µM | < 0.1 µM | A (A represents <100 nM) |
| Cn1cc2cc(-c3ccc4cc(N5CCNCC5)cc(F)c4n3)cc(F)c2n1 [Compound 516, 8-fluoro-2-(7-fluoro-2-methylindazol-5-yl)-6-(piperazin-1-yl)quinoline] | 0.1 to 1 µM | < 0.1 µM | < 0.1 µM | < 0.1 µM | < 0.1 µM | B (B represents 100-1000 nM) |
| Cc1cn2cc(-c3ccc4cc(N5CCNCC5)cc(F)c4n3)cc(F)c2n1 [Compound 517, 8-fluoro-2-{8-fluoro-2-methylimidazo[1,2-a]pyridin-6-yl}-6-(piperazin-1-yl)quinoline] | < 0.1 µM | < 0.1 µM | < 0.1 µM | < 0.1 µM | < 0.1 µM | A (A represents <100 nM) |
| Cn1cc2cc(-c3nc(C4CC4)c4cc(N5CCNCC5)ccc4n3)c(O)c(F)c2n1 [Compound 518, 5-[4-cyclopropyl-6-(piperazin-1-yl)quinazolin-2-yl]-7-fluoro-2-methylindazol-6-ol; trifluoroacetic acid] | 0.1 to 1 µM | < 0.1 µM | < 0.1 µM | < 0.1 µM | < 0.1 µM | B (B represents 100-1000 nM) |
| Cc1c(O)c(-c2nc(-c3cncs3)c3cc(N4CCNCC4)ccc3n2)cc2cn(C)nc12 [Compound 519, 2,7-dimethyl-5-[6-(piperazin-1-yl)-4-(1,3-thiazol-5-yl)quinazolin-2-yl]indazol-6-ol] | 0.1 to 1 µM | 0.1 to 1 µM | 0.1 to 1 µM | < 0.1 µM | 0.1 to 1 µM | B (B represents 100-1000 nM) |
| Cc1c(O)c(-c2ncc3cc(N4CCNCC4)ccc3n2)cc2cn(C)nc12 [Compound 520, 2,7-dimethyl-5-[6-(piperazin-1-yl)quinazolin-2-yl]indazol-6-ol] | < 0.1 µM | 0.1 to 1 µM | 0.1 to 1 µM | < 0.1 µM | < 0.1 µM | B (B represents 100-1000 nM) |
